Measured values taken from US5486601A, “Trisazo dye, and aqueous ink composition containing the same” (priority 1993, dated 1996).
Where a name gives a salt, the structure may show the parent alone. Read-outs that look alike come from different tables or passages of the source.

How the values were obtained:
[1] = AMES test / mutagenicity as stated in general text; conditions: dye intermediate
[2] = Solubility of dye (Na salt) in water; assay type: physicochemical
Experimental: Evaluation Method of Solubility of Dye
A Na salt (2 g) of the resulting dye was dissolved in water (10 g), and the dye solution was filtered and concentrated/dried to determine a solubility (g of dye/100 g of water) of the dye.

[3] = system: strain TA98; assay: AMES test (reverse mutagenicity test), strain TA98, with and without S-9; assay type: cell-based; conditions: TA98, with and without S9, 20 to 5000 μg/plate
Experimental: (§1) Regarding specimen solutions containing the trisazo compounds (dyes) of the present invention obtained in Examples 1 to 9 and dyes of Comparative Examples 1 to 3, respectively, the total number of the mutant colony was determined using the strain TA98. When the resulting magnification is not more than 2, it is evaluated as "negative". On the other hand, when the resulting magnification is not less than 2, it is evaluated as "positive".
(§2) In Table 1, the modification in case that no drug-metabolizing active enzyme S-9 is added is shown in the column "-" and the modification in case that a drug-metabolizing active enzyme S-9 is added is shown in the column "+".

[4] = background statement on known dyes; cited from earlier work
[5] = AMES test (reverse mutagenicity test), strain TA98, with and without S-9; assay type: cell-based; conditions: read-out: magnification of the total number of the mutant colony to the control
Experimental: as §1, §2

[6] = Stability of tetrazonium salt; assay type: physicochemical

Row | Compound | Solubility Dye(g)/water (100 g) [2] | Solubility Evaluation [2] | AMES Evaluation [3] | results of AMES test [4] | further results
1 | Nc1ccc(C2(c3ccc(N)cc3)CCCCC2)cc1 [1,1-bis(4-aminophenyl)cyclohexane] |  |  |  |  | mutagenicity [1]: negative
2 | Nc1ccc(N=Nc2ccc(N=Nc3c(S(=O)(=O)[O-])cc4cc(S(=O)(=O)[O-])c(N=Nc5ccc(N=Nc6ccc(N)cc6N)cc5)c(O)c4c3N)cc2)c(N)c1.[Na+].[Na+] [Comparative Example 1, C.I. Direct Black 19, reference compound] | 20 g of dye/100 g of water | .circleincircle. (solubility is not less than 15) | Positive (when the resulting magnification is not less than 2, it is evaluated as "positive") | false positive or positive | 
3 | Cc1cc(-c2ccc(N=Nc3c(S(=O)(=O)[O-])cc4cc(S(=O)(=O)[O-])c(N=Nc5ccccc5)c(O)c4c3N)c(C)c2)ccc1N=Nc1ccc(N)cc1N.[Na+].[Na+] [Comparative Example 2, C.I. Direct Black 154, reference compound] | 20 g of dye/100 g of water | .circleincircle. (solubility is not less than 15) | Positive (when the resulting magnification is not less than 2, it is evaluated as "positive") | false positive or positive | 
4 | CCCCc1ccc(N=Nc2c(S(=O)(=O)O)cc3cc(S(=O)(=O)O)c(N=Nc4ccc(C5(c6ccc(N=Nc7ccc(N(C)C)cc7O)cc6)CCCCC5)cc4)c(N)c3c2O)cc1 [Example 9] | 12 g of dye/100 g of water | .smallcircle. (solubility is within a range from 10 to 15) | Negative (When the resulting magnification is not more than 2, it is evaluated as "negative") |  | fold induction ([5]; s9, TA98, with S9, 20 μg/plate): 1.15; fold induction ([5]; s9, TA98, with S9, 78 μg/plate): 1.37; fold induction ([5]; s9, TA98, with S9, 313 μg/plate): 0.77; fold induction ([5]; s9, TA98, with S9, 1250 μg/plate): 0.41; fold induction ([5]; s9, TA98, with S9, 5000 μg/plate): 0.59; fold induction ([5]; s9, TA98, without S9, 20 μg/plate): 0.77; fold induction ([5]; s9, TA98, without S9, 78 μg/plate): 0.73; fold induction ([5]; s9, TA98, without S9, 313 μg/plate): 0.58; fold induction ([5]; s9, TA98, without S9, 1250 μg/plate): 0.38; fold induction ([5]; s9, TA98, without S9, 5000 μg/plate): 0.54
5 | N#[N+]c1ccc(C2(c3ccc([N+]#N)cc3)CCCCC2)cc1 [tetrazonium salt, tetrazonium salt of 1,1-bis(4-aminophenyl)cyclohexane] |  |  |  |  | stability of tetrazonium salt [6]: comparatively stable
6 | C.I. Direct Black 168 [Comparative Example 3, reference compound] | 20 g of dye/100 g of water | .circleincircle. (solubility is not less than 15) |  | false positive or positive | 
